Laboratory results from patent publication US20110313672A1, “CELLULAR ANTIOXIDANT ACTIVITY (CAA) ASSAY” (CORNELL UNIVERSITY, priority 2007, published 2011).

Assays:
in vitro = conditions: human
Description: (§1) Briefly, HepG2 cells are seeded at 4×10^4/well on a 96-well plate in 100 μL growth medium and incubated for 24 h at 37° C. The medium is removed and the cells are washed with PBS. Treatments of fruit extracts or antioxidant compounds in 100 μL treatment medium (Williams' Medium E supplemented with 2 mM L-glutamine and 10 mM Hepes) are applied to the cells and the plates are incubated at 37° C. for 24 h. The treatment medium is removed and the cells are washed with PBS. A volume of 50 μL/well methylene blue staining solution (98% HBSS, 0.67% glutaraldehyde, 0.6% methylene blue) is applied to each well and the plate is incubated at 37° C. for 1 h.
(§2) Excess dye is removed by immersing the plate in fresh deionized water until the water appears clear. The excess water should be tapped out of the wells and the plate allowed to air-dry briefly before addition of 100 μL elution solution (49% PBS, 50% ethanol, 1% acetic acid) to each well. The microplate is then placed on a bench-top shaker for 20 minutes to allow uniform elution. The absorbance is read at 570 nm with blank subtraction using, for example a MRX II DYNEX spectrophotometer (DYNEX Inc., Chantilly, Va.). Concentrations of pure compounds or fruit extracts that decrease the absorbance by more than 10% when compared to the control are considered to be cytotoxic.
(§3) Cytotoxicity was measured using the method of Oliver et al. (31) with modifications by our laboratory (32). […] The medium was removed and the cells were washed with PBS. Treatments of fruit extracts or antioxidant compounds in 100 μL treatment medium (Williams' Medium E supplemented with 2 mM L-glutamine and 10 mM Hepes) were applied to the cells and the plates were incubated at 37° C. for 24 h. The treatment medium was removed and the cells were washed with PBS. A volume of 50 μL/well methylene blue staining solution (98% HBSS, 0.67% glutaraldehyde, 0.6% methylene blue) was applied to each well and the plate was incubated at 37° C. for 1 h. The dye was removed and the plate was immersed in fresh deionized water three times, or until the water was clear. The water was tapped out of the wells and the plate was allowed to air-dry briefly before 100 μL elution solution (49% PBS, 50% ethanol, 1% acetic acid) was added to each well. The microplate was placed on a bench-top shaker for 20 minutes to allow uniform elution. The absorbance was read at 570 nm with blank subtraction using the MRX II DYNEX spectrophotometer (DYNEX Inc., Chantilly, Va.). Concentrations of pure compounds or fruit extracts that decreased the absorbance by more than 10% when compared to the control were considered to be cytotoxic.
(§4) The median cytotoxic concentration (CC50) was calculated for each fruit.
(§5) Briefly, HepG2 cells were seeded at 4×10^4/well on a 96-well plate in 100 μL growth medium and incubated for 24 h at 37° C. The medium was removed, and the cells were washed with PBS. Flavonoids in 100 μL growth medium were applied to the cells, and the plates were incubated at 37° C. for 24 h. The medium was removed, and the cells were washed with PBS before a volume of 50 μL/well methylene blue staining solution (98% HBSS, 0.67% glutaraldehyde, 0.6% methylene blue) was applied to each well, and the plate was incubated at 37° C. for 1 h. The dye was removed, and the plate was immersed in fresh deionized water until the water was clear. The water was tapped out of the wells, and the plate was allowed to air-dry briefly before 100 μL of elution solution (49% PBS, 50% ethanol, 1% acetic acid) was added to each well. The microplate was placed on a benchtop shaker for 20 min to allow uniform
(§6) elution. The absorbance was read at 570 nm with blank subtraction using the MRX II Dynex spectrophotometer (Dynex Inc., Chantilly, Va.). The median cytotoxic concentration (CC50) was calculated for each flavonoid.

HepG2 cells = experiment: in vitro; conditions: for CC50: read-out: cytotoxicity CC50, Example 3, median cytotoxic concentration
Description: as §1, §2, §3, §4, §5, §6

[1] = Example 1, dose at which the cell number is reduced by more than 10% after 24 h treatment

O=C(O[C@@H]1Cc2c(O)cc(O)cc2O[C@@H]1c1ccc(O)c(O)c1)c1cc(O)c(O)c(O)c1 [ECG, (−)-epicatechin gallate]
CC50 at 24 h (in vitro): > 200 µM

Oc1cc(O)c2c(c1)O[C@H](c1cc(O)c(O)c(O)c1)[C@H](O)C2 [EGC, (−)-epigallocatechin]
CC50 at 24 h (in vitro): > 200 µM

O=c1c(O)c(-c2ccc(O)cc2)oc2cc(O)cc(O)c12 [Kaempferol, kaempferol]
CC50 at 24 h (in vitro): > 100 µM
Cytotoxicity (cytotoxic concentration) (HepG2 cells; human, 24 h): 30 µM

O=c1cc(-c2ccc(O)c(O)c2)oc2cc(O)cc(O)c12 [Luteolin, luteolin]
CC50 at 24 h (in vitro): > 80 µM
Cytotoxicity (cytotoxic concentration) (HepG2 cells; human, 24 h): 20 µM

O=c1c(O)c(-c2cc(O)c(O)c(O)c2)oc2cc(O)cc(O)c12 [Myricetin, myricetin]
CC50 at 24 h (in vitro): > 200 µM
Cytotoxicity (cytotoxic concentration) (HepG2 cells; human, 24 h): 200 µM

O=c1c(O[C@@H]2O[C@H](CO)[C@@H](O)[C@H](O)[C@H]2O)c(-c2ccc(O)c(O)c2)oc2cc(O)cc(O)c12 [Q-3-G, quercetin-3-β-D-glucoside]
CC50 (HepG2 cells; 24 h): > 200 µM

O=c1c(O)c(-c2ccc(O)c(O)c2)oc2cc(O)cc(O)c12 [Quercetin, quercetin]
CC50 at 24 h (in vitro): > 100 µM
Cytotoxicity (cytotoxic concentration) (HepG2 cells; human, 24 h): >20 µM

O=C1c2c(O)cc(O)cc2O[C@H](c2ccc(O)c(O)c2)[C@H]1O [Taxifolin, taxifolin]
CC50 at 24 h (in vitro; HepG2 cells): > 200 µM
Cytotoxicity (cytotoxic concentration) (HepG2 cells; [1]): 150 µM

O=c1c(O)c(-c2ccccc2)oc2cc(O)cc(O)c12 [galangin]
CC50 at 24 h (in vitro; HepG2 cells): > 80 µM

O=c1c(-c2ccc(O)cc2)coc2cc(O)cc(O)c12 [genistein]
CC50 at 24 h (in vitro): > 100 µM

O=c1c(O)c(-c2ccc(O)cc2O)oc2cc(O)cc(O)c12 [morin]
CC50 at 24 h (in vitro; HepG2 cells): > 200 µM

O=C1C[C@@H](c2ccc(O)cc2)Oc2cc(O)cc(O)c21 [naringenin]
CC50 at 24 h (in vitro; HepG2 cells): > 200 µM

(−)-epigallocatechin gallate [EGCG]
Cytotoxicity (cytotoxic concentration) (HepG2 cells; [1]): >100 µM
CC50 (HepG2 cells; 24 h): > 100 µM
